Test results: patent publication US20090105322A1, “PHARMACEUTICAL COMPOSITION COMPRISING VALSARTAN” (priority 2003, published 2009)

Tests used:
[1] = system: cardiac hemodynamics in CHF patients (NYHA Class II-IV); assay: Protocol 103: chronic central hemodynamic effects in non-ACE inhibitor treated CHF patients; assay type: in vivo, human; conditions: 40, 80 and 160 mg b.i.d. for 4 weeks; preliminary trial results
Protocol: Two Phase II studies (Protocols 103 and 104) have been recently completed. Protocol 103 is a randomized, double-blind, placebo-controlled, parallel group, dose ranging trial to determine the chronic central hemodynamic effects of valsartan 40 mg b.i.d., 80 mg b.i.d., 160 mg b.i.d. and lisinopril 10 mg o.d. administered for 4 weeks to non-ACE inhibitor treated CHF patients (NYHA Class II-IV).

[2] = system: systolic and diastolic blood pressure in patients with essential arterial hypertension; assay: Treatment of patients with essential arterial hypertension; assay type: in vivo, human; conditions: 80 mg o.d.; compared with ACE inhibitors and other antihypertensive medications
Text: Valsartan (CGP 48933) is an orally active, potent and specific competitive Ang II antagonist at the level of the AT1-receptor subtype.

[3] = system: AF occurrence in patients with symptomatic HF (EF<40% and dilated ventricle-LVIDD>2.9); assay: Occurrence of AF from adverse event reports in the Val-HeFT trial; assay type: in vivo, human
Protocol: The occurrence of AF was evaluated based on adverse event reports in the patients with symptomatic heart failure (ejection fraction<40% and dilated ventricle-left ventricular internal diastolic diameter (LVIDD)>2.9) enrolled in the Val-HeFT trial. The Val-HeFT trial is set forth in Example 2. The occurrence of AF was evaluated based on adverse event reports in the patients with symptomatic HF (EF<40% and dilated ventricle-LVIDD>2.9) enrolled in the Val-HeFT trial (set forth in Example 2). Patients were randomized to valsartan or placebo on top of the prescribed treatments for heart failure. During the 23 months of follow-up of the study, AF was reported in 328/5000 patients (6.6%), 132/2506 (5.27%) in the valsartan allocated patients and 196/2494 (7.86%) in those allocated to placebo (p=0.0002). […] This is a multicountry, randomized, double-blind, forced titration, parallel, placebo-controlled trial. Patients will be stratified according to their use of beta blockers at randomization. At Visit 2, patients who meet the randomization criteria will be stratified according to their use of beta blockers and randomized to receive either valsartan 40 mg b.i.d. or placebo (Level 1). After 2 weeks of treatment (Visit 3), patients will be titrated up to receive either valsartan 80 mg b.i.d. or placebo, respectively (Level 2). The criteria for titration are given below. Following another 2 week treatment period (Visit 4), patients will again be titrated up to receive valsartan 160 mg b.i.d. or placebo, respectively (Level 3). The criteria for titration are given below. Patients not tolerating the highest dose of valsartan will be titrated down to the next lower dose after 2 weeks of treatment (Visit 5).

[4] = system: rapid pacing induced heart failure; assay: Rapid pacing induced heart failure model in mini pigs; assay type: in vivo; conditions: valsartan in combination with an ACE inhibitor, compared to either ACE inhibition or AT1-receptor blockade alone
Text: The effect of valsartan alone and in combination with an ACE inhibitor was studied in a model of rapid pacing induced heart failure in mini pigs.

CCCCC(=O)N(Cc1ccc(-c2ccccc2-c2nnn[nH]2)cc1)[C@H](C(=O)O)C(C)C [valsartan, (S)-N-(1-carboxy-2-methyl-prop-1-yl)-N-pentanoyl-N-[2; (1H-tetrazol-5-yl)biphenyl-4-yl-methyl]amine]
Cardiac hemodynamics versus placebo [1]: clinically relevant and statistically significant improvements in cardiac hemodynamics versus placebo
Decreases in systolic and diastolic blood pressure [2]: comparable to those achieved by treatment with ACE inhibitors and other antihypertensive medications
Tolerability profile [2]: more favorable tolerability profile
AF reported (percent of allocated patients) ([3]; 23 months of follow-up, valsartan on top of prescribed heart failure treatments, vs placebo 7.86%, p=0.0002): 5.27%
AF reported (patients with AF / patients allocated) ([3]; 23 months of follow-up, valsartan on top of prescribed heart failure treatments, vs placebo 196/2494): 132/2506
Reduction of the incidence of AF ([3]; valsartan added to prescribed therapy (93% ACE-inhibitors, 35% beta-blockers)): ~35%
RR for AF occurrence (logistic regression analysis) ([3]; valsartan treatment as independent predictor, 95% CI: 0.52-0.82): 0.65
Left ventricular function and geometry, and myocyte inotropic response [4]: further beneficial effects on left ventricular function and geometry, and myocyte inotropic response
